Among the data in patent US9204653B2, “5-fluoro pyrimidine derivatives” (DOW AGROSCIENCES LLC, priority 2008, dated 2015) are pest or weed control values, retold here.

Structures are written as SMILES. Where two headings read alike, the source gives them in different places.

The assay concerns Mycosphaerella graminicola; Anamorph: Septoria tritici; Bayer Code SEPTTR. The assay is described as follows: Leaf blotch of wheat, foliar fungicide treatment, one day protectant (1DP) or three day curative (3DC). Type of assay: in vivo, Septoria tritici on wheat plants (variety Yuma). Conditions: Zymoseptoria tritici, rating of percent disease control.
Where [1] appears, read: 24 h, one day protectant (1DP), read-out: SETTTR 1DP 25 ppm.
[2] abbreviates: 24 h, one day protectant (1DP), read-out: SEPTTR 1DP 100 ppm.
[3] abbreviates: 72 h, three day curative (3DC), read-out: SEPTTR 3DC 25 ppm.
The mark [4] stands for this setting: 72 h, three day curative (3DC), read-out: SEPTTR 3DC 100 ppm.

With `CN(CCOc1ncc(F)c(N)n1)c1ccccc1` [Compound 372], the pest or weed control at 25 ppm under setting [1] was 26 to 50%. For the same compound, the pest or weed control at 100 ppm under setting [2] lay in the range of 76 to 100%.

Regarding `CCOCNc1nc(OCc2ccn(C)n2)ncc1F` [Compound 374], the pest or weed control at 25 ppm fell in the range of 51 to 75% under setting [1] and 76 to 100% under setting [3]. Moreover, the pest or weed control at 100 ppm lay in the range of 76 to 100% under setting [2] and 76 to 100% under setting [4].

With `CCOCCOc1cccc(COc2ncc(F)c(NC)n2)c1` [Compound 375], the pest or weed control at 25 ppm runs as follows: under setting [1], 0 to 25%; under setting [3], 26 to 50%. Also, the pest or weed control at 100 ppm by setting is: under setting [2], 0 to 25%; under setting [4], 76 to 100%.

In the case of `O=C(Nc1cccs1)Nc1nc(OCc2ccc(F)cc2)ncc1F` [Compound 376], the pest or weed control at 25 ppm is 0 to 25% under setting [1] and 0 to 25% under setting [3]. The pest or weed control at 100 ppm is, setting by setting: under setting [2], 0 to 25%; under setting [4], 26 to 50%.

For `Cc1ccc(COc2ncc(F)c(/N=C3\CCCCN3C)n2)cc1` [Compound 377], the pest or weed control at 25 ppm is, setting by setting: under setting [1], 76 to 100%; under setting [3], 51 to 75%. Moreover, the pest or weed control at 100 ppm lay within 76 to 100% under setting [2] and 76 to 100% under setting [4].

As to `Nc1nc(Oc2ccc(Cl)c3ccccc23)ncc1F` [Compound 378], the pest or weed control at 25 ppm fell in the range of 51 to 75% under setting [1] and 76 to 100% under setting [3]. Further, the pest or weed control at 100 ppm by setting is: under setting [2], 76 to 100%; under setting [4], 76 to 100%.

`CCOCNc1nc(OC(C)c2ccc(F)cc2)ncc1F` (centres unmarked) [Compound 379]: the pest or weed control at 25 ppm lay within 76 to 100% under setting [1] and 51 to 75% under setting [3]. The pest or weed control at 100 ppm by setting is: under setting [2], 76 to 100%; under setting [4], 76 to 100%.

For the compound `NN(Cc1ccccc1)c1nc(OCc2ccc(F)cc2)ncc1F` [Compound 380], the pest or weed control at 25 ppm reads like this: under setting [1], 76 to 100%; under setting [3], 0 to 25%. The pest or weed control at 100 ppm fell in the range of 76 to 100% under setting [2] and 76 to 100% under setting [4].

As for `Nc1nc(OCc2cccc3ccsc23)ncc1F` [Compound 381], the pest or weed control at 25 ppm reads like this: under setting [1], 76 to 100%; under setting [3], 76 to 100%. Also, the pest or weed control at 100 ppm by setting is: under setting [2], 76 to 100%; under setting [4], 76 to 100%.

As for `CC(Oc1ncc(F)c(N)n1)c1c(Cl)ccc(Cl)c1Cl` (centres unmarked) [Compound 382], the pest or weed control at 25 ppm reads like this: under setting [1], 76 to 100%; under setting [3], 0 to 25%. The pest or weed control at 100 ppm was in the range of 76 to 100% under setting [2] and 76 to 100% under setting [4].

`Nc1nc(OCc2ccccc2Cn2cncn2)ncc1F` [Compound 383]: the pest or weed control at 25 ppm was in the range of 0 to 25% under setting [1] and 26 to 50% under setting [3]. In addition, the pest or weed control at 100 ppm runs as follows: under setting [2], 0 to 25%; under setting [4], 0 to 25%.

As for `CC(C)(C)Oc1cccc(COc2ncc(F)c(N)n2)c1` [Compound 385], the pest or weed control at 25 ppm was in the range of 76 to 100% under setting [1] and 76 to 100% under setting [3]. Also, the pest or weed control at 100 ppm lay in the range of 76 to 100% under setting [2] and 76 to 100% under setting [4].

For `COc1ccc(COc2ncc(F)c(N)n2)cc1C` [Compound 386], the pest or weed control at 25 ppm reads like this: under setting [1], 76 to 100%; under setting [3], 76 to 100%. Besides, the pest or weed control at 100 ppm fell in the range of 76 to 100% under setting [2] and 76 to 100% under setting [4].

With `CC(C)c1ccc(C(C)Oc2ncc(F)c(N)n2)cc1` (centres unmarked) [Compound 387], the pest or weed control at 25 ppm is 76 to 100% under setting [1] and 76 to 100% under setting [3]. Also, the pest or weed control at 100 ppm under setting [2] was in the range of 76 to 100% and the pest or weed control at 100 ppm under setting [4] fell in the range of 76 to 100%.

On to `COCCOC(=O)Oc1ncc(F)c(/N=C/N(C)C)n1` [Compound 389], for which the pest or weed control at 25 ppm under setting [1] lay in the range of 76 to 100% and the pest or weed control at 25 ppm under setting [3] fell in the range of 76 to 100%. The pest or weed control at 100 ppm reads like this: under setting [2], 76 to 100%; under setting [4], 76 to 100%.

Regarding `ONc1nc(OCc2ccccc2)ncc1F` [Compound 390], the pest or weed control at 25 ppm by setting is: under setting [1], 76 to 100%; under setting [3], 76 to 100%. The pest or weed control at 100 ppm lay in the range of 76 to 100% under setting [2] and 76 to 100% under setting [4].

As to `Nc1nc(OCc2ccccc2I)ncc1F` [Compound 391], the pest or weed control at 25 ppm is, setting by setting: under setting [1], 51 to 75%; under setting [3], 26 to 50%. In addition, the pest or weed control at 100 ppm was 76 to 100% under setting [2] and 76 to 100% under setting [4].

On to `Nc1nc(OCc2ccoc2)ncc1F` [Compound 392], for which the pest or weed control at 25 ppm under setting [1] is 76 to 100% and the pest or weed control at 25 ppm under setting [3] lay in the range of 76 to 100%. In addition, the pest or weed control at 100 ppm fell in the range of 76 to 100% under setting [2] and 76 to 100% under setting [4].

Take `CC(Oc1ncc(F)c(N)n1)c1ccc([N+](=O)[O-])cc1` (centres unmarked) [Compound 393]: the pest or weed control at 25 ppm under setting [1] fell in the range of 26 to 50% and the pest or weed control at 25 ppm under setting [3] lay within 26 to 50%. The pest or weed control at 100 ppm by setting is: under setting [2], 76 to 100%; under setting [4], 76 to 100%.

`O=C(Cc1ccccc1)Nc1nc(OCc2ccc(F)cc2)ncc1F` [Compound 394]: the pest or weed control at 25 ppm under setting [1] was 76 to 100% and the pest or weed control at 25 ppm under setting [3] fell in the range of 76 to 100%. The pest or weed control at 100 ppm under setting [2] is 76 to 100% and the pest or weed control at 100 ppm under setting [4] fell in the range of 76 to 100%.

For `CN(N)c1nc(OCc2ccccc2)ncc1F` [Compound 395], the pest or weed control at 25 ppm was in the range of 0 to 25% under setting [1] and 26 to 50% under setting [3]. Also, the pest or weed control at 100 ppm fell in the range of 0 to 25% under setting [2] and 51 to 75% under setting [4].

Turning to `Cn1nc(COc2ncc(F)c(N)n2)c2ccccc21` [Compound 396], the pest or weed control at 25 ppm lay in the range of 76 to 100% under setting [1] and 76 to 100% under setting [3]. In addition, the pest or weed control at 100 ppm is, setting by setting: under setting [2], 76 to 100%; under setting [4], 76 to 100%.

`CNN(C)c1nc(OCc2ccc(F)cc2)ncc1F` [Compound 397]: the pest or weed control at 25 ppm lay within 0 to 25% under setting [1] and 0 to 25% under setting [3]. For the same compound, the pest or weed control at 100 ppm is, setting by setting: under setting [2], 0 to 25%; under setting [4], 0 to 25%.

On to `Cc1ccc(COc2ncc(F)c(NC(=O)NCc3ccccc3F)n2)cc1` [Compound 398], for which the pest or weed control at 25 ppm is 0 to 25% under setting [1] and 0 to 25% under setting [3]. For the same compound, the pest or weed control at 100 ppm under setting [2] fell in the range of 0 to 25% and the pest or weed control at 100 ppm under setting [4] lay within 26 to 50%.

For `Cc1c(N)cccc1COc1ncc(F)c(N)n1` [Compound 399], the pest or weed control at 25 ppm under setting [1] is 51 to 75% and the pest or weed control at 25 ppm under setting [3] was in the range of 76 to 100%. Further, the pest or weed control at 100 ppm lay within 76 to 100% under setting [2] and 76 to 100% under setting [4].

For the compound `CCOc1ccc(COc2ncc(F)c(N)n2)cc1` [Compound 400], the pest or weed control at 25 ppm under setting [1] lay in the range of 76 to 100% and the pest or weed control at 25 ppm under setting [3] was in the range of 76 to 100%. In addition, the pest or weed control at 100 ppm by setting is: under setting [2], 76 to 100%; under setting [4], 76 to 100%.

For `Nc1nc(OCc2ccnc3ccccc23)ncc1F` [Compound 401], the pest or weed control at 25 ppm by setting is: under setting [1], 76 to 100%; under setting [3], 76 to 100%. Moreover, the pest or weed control at 100 ppm was 76 to 100% under setting [2] and 76 to 100% under setting [4].

For `Cc1ccc(COc2ncc(F)c(/N=C/N3CCOCC3)n2)cc1` [Compound 402], the pest or weed control at 25 ppm is, setting by setting: under setting [1], 76 to 100%; under setting [3], 76 to 100%. Moreover, the pest or weed control at 100 ppm is, setting by setting: under setting [2], 76 to 100%; under setting [4], 76 to 100%.

For the compound `CCC(C)C(Oc1ncc(F)c(N)n1)c1ccc(F)cc1` (centres unmarked) [Compound 403], the pest or weed control at 25 ppm runs as follows: under setting [1], 76 to 100%; under setting [3], 26 to 50%. Further, the pest or weed control at 100 ppm is 76 to 100% under setting [2] and 76 to 100% under setting [4].

On to `Nc1nc(OCc2cc(Cl)cc(Cl)c2)ncc1F` [Compound 404], for which the pest or weed control at 25 ppm was 76 to 100% under setting [1] and 76 to 100% under setting [3]. The pest or weed control at 100 ppm reads like this: under setting [2], 76 to 100%; under setting [4], 76 to 100%.

Take `COc1ccccc1COc1ncc(F)c(/N=C/N(C)C)n1` [Compound 405]: the pest or weed control at 25 ppm by setting is: under setting [1], 76 to 100%; under setting [3], 76 to 100%. Also, the pest or weed control at 100 ppm lay within 76 to 100% under setting [2] and 76 to 100% under setting [4].

In the case of `Nc1nc(OC(c2ccccc2)c2ccc(F)cc2)ncc1F` (centres unmarked) [Compound 406], the pest or weed control at 25 ppm runs as follows: under setting [1], 76 to 100%; under setting [3], 76 to 100%. The pest or weed control at 100 ppm fell in the range of 76 to 100% under setting [2] and 76 to 100% under setting [4].

Take `COc1cccc(COc2ncc(F)c(N3CCCCC3)n2)c1` [Compound 407]: the pest or weed control at 25 ppm under setting [1] was 0 to 25% and the pest or weed control at 25 ppm under setting [3] was 0 to 25%. In addition, the pest or weed control at 100 ppm lay in the range of 0 to 25% under setting [2] and 0 to 25% under setting [4].

Turning to `Nc1nc(OCc2ccco2)ncc1F` [Compound 409], the pest or weed control at 25 ppm fell in the range of 76 to 100% under setting [1] and 76 to 100% under setting [3]. The pest or weed control at 100 ppm under setting [2] was 76 to 100% and the pest or weed control at 100 ppm under setting [4] was 76 to 100%.

Turning to `Cn1ccc(COc2ncc(F)c(NCOCc3ccccc3)n2)n1` [Compound 412], the pest or weed control at 25 ppm by setting is: under setting [1], 0 to 25%; under setting [3], 0 to 25%. Also, the pest or weed control at 100 ppm under setting [2] lay in the range of 76 to 100% and the pest or weed control at 100 ppm under setting [4] fell in the range of 51 to 75%.

Take `Nc1nc(OC(=O)c2ccccc2)ncc1F` [Compound 413]: the pest or weed control at 25 ppm under setting [1] was 76 to 100% and the pest or weed control at 25 ppm under setting [3] was in the range of 76 to 100%. In addition, the pest or weed control at 100 ppm is, setting by setting: under setting [2], 76 to 100%; under setting [4], 76 to 100%.

Consider `COc1ccccc1COc1ncc(F)c(NC(=O)OCc2ccccc2)n1` [Compound 415], for which the pest or weed control at 25 ppm is 51 to 75% under setting [1] and 76 to 100% under setting [3]. Also, the pest or weed control at 100 ppm fell in the range of 76 to 100% under setting [2] and 76 to 100% under setting [4].
